As usually defined, the ΔTm is the change in melting temperature against a reference sample.

From ChEMBL document CHEMBL1145498, “A systematic interaction map of validated kinase inhibitors with Ser/Thr kinases” (Proc Natl Acad Sci U S A, 2007) come the findings set out here.

Assay [1] has as its target T1, Lymphokine-activated killer T-cell-originated protein kinase (Homo sapiens) (UniProt Q96KB5).
T1 sequence (whole entry): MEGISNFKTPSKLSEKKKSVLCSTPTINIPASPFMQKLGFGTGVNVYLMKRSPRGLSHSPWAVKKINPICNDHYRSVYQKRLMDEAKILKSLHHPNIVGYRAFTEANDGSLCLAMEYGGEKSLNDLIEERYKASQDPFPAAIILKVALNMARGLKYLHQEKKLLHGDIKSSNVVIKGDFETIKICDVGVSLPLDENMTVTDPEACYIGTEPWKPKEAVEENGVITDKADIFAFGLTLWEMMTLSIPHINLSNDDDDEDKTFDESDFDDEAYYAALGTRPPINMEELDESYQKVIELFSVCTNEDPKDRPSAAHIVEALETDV

Assay [2] deals with Serine/threonine-protein kinase pim-3 (Homo sapiens) (UniProt Q86V86).
Assay [3] has as its target Serine/threonine-protein kinase PAK 4 (Homo sapiens) (UniProt O96013).
Assay [4] concerns the target Calcium/calmodulin-dependent protein kinase type 1D (Homo sapiens) (UniProt Q8IU85).
Assay [5] has as its target T2, Serine/threonine-protein kinase 4 (Homo sapiens) (UniProt Q13043).
T2 sequence (whole entry): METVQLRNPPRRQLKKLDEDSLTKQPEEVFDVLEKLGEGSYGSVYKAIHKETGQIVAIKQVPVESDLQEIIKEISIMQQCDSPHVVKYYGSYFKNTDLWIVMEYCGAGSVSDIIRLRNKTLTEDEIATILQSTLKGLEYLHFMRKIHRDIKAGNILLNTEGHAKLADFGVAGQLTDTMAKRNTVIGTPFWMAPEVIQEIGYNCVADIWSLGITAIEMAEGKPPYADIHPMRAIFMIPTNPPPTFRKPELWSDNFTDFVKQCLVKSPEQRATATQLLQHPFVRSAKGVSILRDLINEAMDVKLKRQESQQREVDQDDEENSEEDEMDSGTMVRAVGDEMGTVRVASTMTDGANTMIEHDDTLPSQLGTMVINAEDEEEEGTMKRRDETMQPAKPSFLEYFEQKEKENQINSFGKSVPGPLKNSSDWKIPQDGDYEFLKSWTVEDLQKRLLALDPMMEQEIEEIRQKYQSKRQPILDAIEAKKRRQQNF

Assay [6] addresses T3, Dual specificity mitogen-activated protein kinase kinase 6 (Homo sapiens) (UniProt P52564).
T3 sequence (whole entry): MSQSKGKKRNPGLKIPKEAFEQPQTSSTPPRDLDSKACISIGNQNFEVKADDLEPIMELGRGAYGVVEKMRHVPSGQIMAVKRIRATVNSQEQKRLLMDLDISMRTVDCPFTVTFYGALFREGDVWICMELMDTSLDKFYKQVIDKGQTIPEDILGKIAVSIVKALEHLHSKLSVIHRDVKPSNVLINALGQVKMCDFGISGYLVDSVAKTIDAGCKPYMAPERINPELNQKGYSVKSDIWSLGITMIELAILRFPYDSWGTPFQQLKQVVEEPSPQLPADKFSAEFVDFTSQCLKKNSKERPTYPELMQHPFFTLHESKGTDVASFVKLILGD

Assay [7] deals with Serine/threonine-protein kinase 38 (Homo sapiens) (UniProt Q15208).
Sequence of Serine/threonine-protein kinase 38 (Homo sapiens) (Q15208 2-465 limits assumed): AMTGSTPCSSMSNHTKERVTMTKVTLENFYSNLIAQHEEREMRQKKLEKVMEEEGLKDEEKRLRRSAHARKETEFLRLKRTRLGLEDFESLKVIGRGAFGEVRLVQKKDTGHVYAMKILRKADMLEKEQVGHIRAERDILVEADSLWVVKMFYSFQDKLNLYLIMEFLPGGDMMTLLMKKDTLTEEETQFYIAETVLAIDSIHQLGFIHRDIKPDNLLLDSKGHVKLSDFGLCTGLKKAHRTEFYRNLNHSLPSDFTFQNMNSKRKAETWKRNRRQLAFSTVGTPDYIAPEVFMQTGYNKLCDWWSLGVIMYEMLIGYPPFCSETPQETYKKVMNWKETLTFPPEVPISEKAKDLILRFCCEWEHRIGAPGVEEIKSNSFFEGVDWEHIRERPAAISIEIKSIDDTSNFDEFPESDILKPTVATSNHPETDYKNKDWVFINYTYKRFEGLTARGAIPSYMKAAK
The target of assay [8] is Serine/threonine-protein kinase 16 (Homo sapiens) (UniProt O75716).
Sequence of Serine/threonine-protein kinase 16 (Homo sapiens) (O75716 whole entry): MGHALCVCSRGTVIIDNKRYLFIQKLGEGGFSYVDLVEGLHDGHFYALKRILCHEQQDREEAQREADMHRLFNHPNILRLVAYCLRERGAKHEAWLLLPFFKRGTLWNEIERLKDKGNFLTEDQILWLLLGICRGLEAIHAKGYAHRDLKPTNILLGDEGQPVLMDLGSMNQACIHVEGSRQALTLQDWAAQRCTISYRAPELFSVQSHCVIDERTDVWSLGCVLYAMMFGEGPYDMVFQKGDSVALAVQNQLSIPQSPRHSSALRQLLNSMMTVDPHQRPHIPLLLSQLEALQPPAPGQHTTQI
The target in assay [9] is Cyclin-dependent kinase 16 (Homo sapiens) (UniProt Q00536).
Sequence of Cyclin-dependent kinase 16 (Homo sapiens) (Q00536 whole entry): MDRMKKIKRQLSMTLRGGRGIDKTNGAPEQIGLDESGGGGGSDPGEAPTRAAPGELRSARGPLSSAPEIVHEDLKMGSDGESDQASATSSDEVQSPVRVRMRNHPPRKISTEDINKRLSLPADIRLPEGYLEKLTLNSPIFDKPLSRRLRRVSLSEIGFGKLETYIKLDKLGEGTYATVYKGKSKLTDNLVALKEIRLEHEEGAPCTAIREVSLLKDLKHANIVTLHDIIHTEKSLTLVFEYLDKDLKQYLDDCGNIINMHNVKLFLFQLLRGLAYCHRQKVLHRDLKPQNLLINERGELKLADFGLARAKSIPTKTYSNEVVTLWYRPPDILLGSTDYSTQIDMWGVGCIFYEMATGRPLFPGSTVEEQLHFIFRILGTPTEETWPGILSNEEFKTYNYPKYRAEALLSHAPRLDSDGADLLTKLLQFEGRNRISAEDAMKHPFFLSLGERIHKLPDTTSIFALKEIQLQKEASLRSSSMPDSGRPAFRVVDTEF
Assay [10] addresses Mitogen-activated protein kinase 3 (Homo sapiens, UniProt P27361).
The target of assay [11] is Cyclin-dependent kinase 6 (Homo sapiens) (UniProt Q00534).
Sequence of Cyclin-dependent kinase 6 (Homo sapiens) (Q00534 whole entry): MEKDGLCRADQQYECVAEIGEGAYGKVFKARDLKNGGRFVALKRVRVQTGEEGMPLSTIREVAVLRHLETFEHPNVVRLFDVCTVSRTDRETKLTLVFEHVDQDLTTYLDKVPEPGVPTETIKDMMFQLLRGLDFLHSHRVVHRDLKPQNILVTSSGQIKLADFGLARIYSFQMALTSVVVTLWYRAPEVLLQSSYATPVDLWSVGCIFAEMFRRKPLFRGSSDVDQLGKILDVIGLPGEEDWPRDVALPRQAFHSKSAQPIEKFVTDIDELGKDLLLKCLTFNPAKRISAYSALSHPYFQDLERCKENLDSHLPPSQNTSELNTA
Assay [12] addresses Serine/threonine-protein kinase PAK 5 (Homo sapiens) (UniProt Q9P286).
Assay [13] addresses T4, Serine/threonine-protein kinase 17A (Homo sapiens) (UniProt Q9UEE5).
T4 sequence (whole entry): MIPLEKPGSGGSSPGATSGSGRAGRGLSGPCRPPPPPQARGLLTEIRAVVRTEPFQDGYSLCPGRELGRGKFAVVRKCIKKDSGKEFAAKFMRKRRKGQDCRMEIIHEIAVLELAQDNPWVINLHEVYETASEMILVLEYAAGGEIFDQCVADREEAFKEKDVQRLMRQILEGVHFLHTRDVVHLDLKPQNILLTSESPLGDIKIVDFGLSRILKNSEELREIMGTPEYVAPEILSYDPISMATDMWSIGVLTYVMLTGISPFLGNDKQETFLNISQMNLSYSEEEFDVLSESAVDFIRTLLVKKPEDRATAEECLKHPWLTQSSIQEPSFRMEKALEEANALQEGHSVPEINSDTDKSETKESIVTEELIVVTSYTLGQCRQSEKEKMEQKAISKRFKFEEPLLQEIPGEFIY

Assay [14] concerns the target Serine/threonine-protein kinase 26 (Homo sapiens) (UniProt Q9P289).
Assay [15] concerns the target Cyclin-dependent kinase-like 1 (Homo sapiens) (UniProt Q00532).
For assay [16], the target named is Mitogen-activated protein kinase 11 (Homo sapiens, UniProt Q15759).
For assay [17], the target named is Ribosomal protein S6 kinase alpha-3 (Homo sapiens) (UniProt P51812).
Sequence of Ribosomal protein S6 kinase alpha-3 (Homo sapiens) (P51812 whole entry): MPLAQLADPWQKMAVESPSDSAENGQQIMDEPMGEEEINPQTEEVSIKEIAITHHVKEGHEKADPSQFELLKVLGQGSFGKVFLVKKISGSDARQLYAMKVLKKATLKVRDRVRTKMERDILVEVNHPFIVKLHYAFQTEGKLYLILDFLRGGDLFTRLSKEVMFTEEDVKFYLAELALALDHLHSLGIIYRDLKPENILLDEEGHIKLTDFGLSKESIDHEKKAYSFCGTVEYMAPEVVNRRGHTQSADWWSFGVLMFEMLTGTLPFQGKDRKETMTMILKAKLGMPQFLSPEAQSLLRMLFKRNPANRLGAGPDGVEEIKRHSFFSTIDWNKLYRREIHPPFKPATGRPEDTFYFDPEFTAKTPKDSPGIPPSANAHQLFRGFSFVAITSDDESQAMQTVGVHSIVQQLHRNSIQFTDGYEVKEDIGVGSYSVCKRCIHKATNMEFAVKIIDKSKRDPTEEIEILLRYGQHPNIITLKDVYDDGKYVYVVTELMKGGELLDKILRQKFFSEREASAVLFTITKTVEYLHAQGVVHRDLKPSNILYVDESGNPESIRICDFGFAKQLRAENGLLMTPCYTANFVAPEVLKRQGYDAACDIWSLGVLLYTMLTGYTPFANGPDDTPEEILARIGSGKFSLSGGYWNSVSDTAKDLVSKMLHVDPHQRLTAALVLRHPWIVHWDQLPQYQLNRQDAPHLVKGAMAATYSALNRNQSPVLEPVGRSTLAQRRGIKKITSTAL
Assay [18] has as its target T5, Serine/threonine-protein kinase Nek2 (Homo sapiens) (UniProt P51955).
T5 sequence (whole entry): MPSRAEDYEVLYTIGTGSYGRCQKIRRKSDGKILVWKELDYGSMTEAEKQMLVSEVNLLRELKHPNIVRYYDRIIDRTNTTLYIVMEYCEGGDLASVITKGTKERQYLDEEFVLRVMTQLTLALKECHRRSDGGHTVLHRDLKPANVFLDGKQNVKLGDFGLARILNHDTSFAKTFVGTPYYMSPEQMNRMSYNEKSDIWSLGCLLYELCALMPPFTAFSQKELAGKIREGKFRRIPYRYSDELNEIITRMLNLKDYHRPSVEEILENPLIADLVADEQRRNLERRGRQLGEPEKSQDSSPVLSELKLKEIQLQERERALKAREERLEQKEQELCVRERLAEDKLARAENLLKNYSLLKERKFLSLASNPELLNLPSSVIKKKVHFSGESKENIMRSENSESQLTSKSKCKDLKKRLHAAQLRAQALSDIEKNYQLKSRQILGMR

Sequence of Mitogen-activated protein kinase 3 (P27361 whole entry): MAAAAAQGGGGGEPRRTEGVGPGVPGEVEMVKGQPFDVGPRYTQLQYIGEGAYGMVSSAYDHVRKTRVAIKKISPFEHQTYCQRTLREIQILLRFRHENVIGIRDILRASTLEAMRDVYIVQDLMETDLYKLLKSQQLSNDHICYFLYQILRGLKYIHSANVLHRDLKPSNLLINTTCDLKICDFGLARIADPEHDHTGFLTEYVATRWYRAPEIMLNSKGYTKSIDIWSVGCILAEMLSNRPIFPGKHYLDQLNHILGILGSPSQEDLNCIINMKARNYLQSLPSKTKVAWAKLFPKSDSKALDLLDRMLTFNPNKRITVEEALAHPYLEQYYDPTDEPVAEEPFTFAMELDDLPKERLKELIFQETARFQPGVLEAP
Sequence of Calcium/calmodulin-dependent protein kinase type 1D (Homo sapiens) (Q8IU85 whole entry, looked up): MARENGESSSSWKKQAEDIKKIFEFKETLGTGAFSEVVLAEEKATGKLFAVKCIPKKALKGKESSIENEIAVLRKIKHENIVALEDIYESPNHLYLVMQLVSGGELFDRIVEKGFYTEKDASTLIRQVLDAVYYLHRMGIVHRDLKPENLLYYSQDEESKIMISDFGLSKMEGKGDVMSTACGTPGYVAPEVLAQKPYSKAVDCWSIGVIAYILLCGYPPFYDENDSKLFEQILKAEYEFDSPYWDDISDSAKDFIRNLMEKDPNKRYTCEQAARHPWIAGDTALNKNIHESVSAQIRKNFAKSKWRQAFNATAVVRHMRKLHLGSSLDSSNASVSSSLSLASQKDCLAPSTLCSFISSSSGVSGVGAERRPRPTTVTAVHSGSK
Sequence of Cyclin-dependent kinase-like 1 (Homo sapiens) (Q00532 whole entry): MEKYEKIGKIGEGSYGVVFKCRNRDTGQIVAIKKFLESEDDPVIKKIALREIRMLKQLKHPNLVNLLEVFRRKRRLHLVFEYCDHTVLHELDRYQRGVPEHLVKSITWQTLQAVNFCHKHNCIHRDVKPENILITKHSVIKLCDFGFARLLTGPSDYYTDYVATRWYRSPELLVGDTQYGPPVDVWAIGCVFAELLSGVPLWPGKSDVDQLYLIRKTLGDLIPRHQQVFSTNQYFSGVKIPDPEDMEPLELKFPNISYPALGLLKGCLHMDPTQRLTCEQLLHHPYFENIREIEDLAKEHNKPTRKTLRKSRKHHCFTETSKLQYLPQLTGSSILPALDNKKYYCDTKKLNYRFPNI
Sequence of Serine/threonine-protein kinase PAK 4 (Homo sapiens) (O96013 whole entry, looked up): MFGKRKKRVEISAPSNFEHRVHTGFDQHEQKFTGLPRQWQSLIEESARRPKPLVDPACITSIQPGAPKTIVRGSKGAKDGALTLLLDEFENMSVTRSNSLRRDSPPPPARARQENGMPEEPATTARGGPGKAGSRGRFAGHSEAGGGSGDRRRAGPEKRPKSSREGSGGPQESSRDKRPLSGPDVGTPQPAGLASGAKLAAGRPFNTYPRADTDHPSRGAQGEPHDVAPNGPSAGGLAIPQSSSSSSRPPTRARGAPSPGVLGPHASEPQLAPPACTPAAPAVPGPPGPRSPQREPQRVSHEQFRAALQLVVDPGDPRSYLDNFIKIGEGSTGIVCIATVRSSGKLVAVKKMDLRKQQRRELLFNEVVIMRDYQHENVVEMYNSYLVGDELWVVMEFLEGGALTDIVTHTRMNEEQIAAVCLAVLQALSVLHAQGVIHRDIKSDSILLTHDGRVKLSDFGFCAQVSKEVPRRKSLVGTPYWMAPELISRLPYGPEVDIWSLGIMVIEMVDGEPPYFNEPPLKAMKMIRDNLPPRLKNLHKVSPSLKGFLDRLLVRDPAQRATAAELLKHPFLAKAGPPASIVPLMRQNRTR
Sequence of Serine/threonine-protein kinase 26 (Homo sapiens) (Q9P289 2-416 limits assumed): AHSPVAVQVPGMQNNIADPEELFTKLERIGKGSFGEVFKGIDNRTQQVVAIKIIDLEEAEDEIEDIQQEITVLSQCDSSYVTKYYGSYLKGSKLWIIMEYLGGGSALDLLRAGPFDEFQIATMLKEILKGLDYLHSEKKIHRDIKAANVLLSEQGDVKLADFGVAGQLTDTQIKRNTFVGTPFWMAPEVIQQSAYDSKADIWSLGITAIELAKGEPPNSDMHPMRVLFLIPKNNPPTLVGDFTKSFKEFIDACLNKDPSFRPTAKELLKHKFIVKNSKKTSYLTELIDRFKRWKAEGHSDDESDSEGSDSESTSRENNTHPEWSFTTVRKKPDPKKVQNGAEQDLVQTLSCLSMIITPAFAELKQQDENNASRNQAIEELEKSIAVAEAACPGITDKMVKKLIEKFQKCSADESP

Consider `COc1ccc(COc2ccc(Cc3cnc(N)nc3N)cc2OC)cc1`, for which the ΔTm in [1] was -0.1 °C; in assay [2], 0 °C; in assay [3], -0.1 °C; in [4], 0.1 °C; in assay [5] it was 0.2 °C; in [6], 0.1 °C. Further, the ΔTm in assay [7] was 0.1 °C; in [8] it was 0 °C; in assay [9] it was 0.1 °C; in assay [10], 0.3 °C; in assay [11] it was 0.9 °C; in assay [12] it was -0.2 °C. Moreover, the ΔTm was -0.4 °C in assay [13]; 0.9 °C in assay [14]; -0.2 °C in assay [15]; -0.1 °C in [16]; -0.2 °C in assay [17]; -0.1 °C in assay [18].

`O=C(O)c1cc(NCc2cc(O)ccc2O)ccc1O`: the ΔTm in assay [1] is 0 °C; in assay [2], -0.2 °C; in [3], 0 °C; in assay [4], -0.1 °C; in assay [5], -0.6 °C; in assay [6] it was -0.2 °C. Besides, the ΔTm in assay [7] was -0.4 °C; in assay [8], 0.5 °C; in assay [9], 0.1 °C; in [10], -0.1 °C; in [11], -0.3 °C; in assay [12], -0.3 °C. The ΔTm in [13] is 0.1 °C; in assay [14] it was 0.9 °C; in assay [15] it was -0.4 °C; in assay [16], 0.2 °C; in assay [17], 0.3 °C; in assay [18], 0.7 °C.

On to `O=c1sn(Cc2ccccc2)c(=S)n1Cc1ccccc1`, for which the ΔTm in assay [1] was -0.4 °C; in [2], 0.3 °C; in [3] it was 1.2 °C; in assay [4], 0.1 °C; in [5] it was 0.9 °C; in assay [6], 0.1 °C. For the same molecule, the ΔTm in assay [7] was 0.4 °C; in assay [8] it was -0.4 °C; in assay [9] it was -0.4 °C; in [10], -0.3 °C; in [11] it was -0.4 °C; in [12] it was 0.5 °C. In addition, the ΔTm in assay [13] is 0.2 °C; in [14] it was 0.4 °C; in assay [15], -0.3 °C; in [16], -0.3 °C; in assay [17], -0.4 °C; in assay [18] it was 1.5 °C.

As to `N#C/C(=C\c1ccc(O)c(O)c1)C(=O)Nc1ccccc1`, the ΔTm was 0.5 °C in [1]; 2.8 °C in assay [2]; -0.5 °C in assay [3]; 0.3 °C in [4]; 0.4 °C in assay [5]; 0.3 °C in assay [6]. For the same molecule, the ΔTm was 0 °C in assay [7]; 0.1 °C in assay [8]; -0.5 °C in assay [9]; 0.5 °C in [10]; 0.4 °C in [11]; 0.4 °C in assay [12]. The ΔTm in assay [13] is 2.8 °C; in assay [14], 0.3 °C; in [15], -0.1 °C; in assay [16] it was 0.2 °C; in [17] it was 0.8 °C; in assay [18] it was 1.4 °C.

As for `O=c1ccc2ccc(O)c(O)c2o1` [DAPHNETIN], the ΔTm in assay [1] is -0.4 °C; in assay [2] it was 0.8 °C; in assay [3], 0 °C; in assay [4], 0.1 °C; in assay [5] it was 0 °C; in [6] it was 0.1 °C. Further, the ΔTm was 0.3 °C in assay [7]; 0.1 °C in [8]; -0.6 °C in assay [9]; 0.3 °C in [10]; -0.3 °C in assay [11]; -0.1 °C in assay [12]. Further, the ΔTm in [13] is 0.4 °C; in assay [14], -0.4 °C; in assay [15], 0.3 °C; in assay [16] it was -0.7 °C; in assay [17], 0.1 °C; in [18], 0.7 °C.

As for `Cn1cc(C2=C(c3cn(CCCSC(=N)N)c4ccccc34)C(=O)NC2=O)c2ccccc21`, the ΔTm in assay [1] is -0.1 °C; in [2] it was 7.7 °C; in assay [3] it was 3.4 °C; in assay [4], 2 °C; in [5], 7.4 °C; in [6], 0.9 °C. The ΔTm in [7] stood at 0.8 °C; in assay [8], 3.9 °C; in assay [9] it was 5.3 °C; in assay [10] it was 0.7 °C; in [11] it was 3.2 °C; in assay [12], 1.9 °C. The ΔTm turned out to be 4.3 °C in assay [13]; 2.3 °C in assay [14]; 2.2 °C in assay [15]; 2 °C in assay [16]; 2.1 °C in [17]; 0.4 °C in assay [18].

For the molecule `Ic1cccc(CSc2nnc(-c3ccncc3)o2)c1`, the ΔTm is 0.3 °C in assay [1]; 0.2 °C in assay [2]; -0.1 °C in [3]; -0.3 °C in assay [4]; -0.4 °C in assay [5]; 0.3 °C in assay [6]. The ΔTm was 0.8 °C in assay [7]; 0.2 °C in [8]; -0.8 °C in [9]; 0.5 °C in [10]; -0.2 °C in assay [11]; -0.2 °C in [12]. In addition, the ΔTm in assay [13] is 0.3 °C; in assay [14] it was -0.5 °C; in [15] it was -0.7 °C; in [16], -0.4 °C; in assay [17], 0 °C; in assay [18], -0.2 °C.

On to `O=C1Cc2c([nH]c3ccc([N+](=O)[O-])cc23)-c2ccccc2N1`, for which the ΔTm in assay [1] was determined as 0.1 °C; in [2], 2.8 °C; in [3], 2.1 °C; in assay [4] it was 0.8 °C; in [5] it was 5.1 °C; in assay [6] it was 1.2 °C. Besides, the ΔTm in [7] was 1.8 °C; in [8] it was 1 °C; in assay [9] it was 3.8 °C; in assay [10], 1.1 °C; in [11], 1.4 °C; in [12], 3.8 °C. Moreover, the ΔTm in assay [13] is 11.4 °C; in assay [14] it was 2.5 °C; in [15], 0.4 °C; in assay [16], -0.1 °C; in assay [17], 0.2 °C; in assay [18], 2.2 °C.
